Data on 3 compounds can be found in article PMC11173687, “Chemical Profile and Healthy Properties of Sicilian Diplotaxis harra subsp. crassifolia (Raf.) Maire” (Molecules, 2024).

Assay [1] in a line: β-carotene bleaching test (protection from lipid peroxidation). As for the experimental part:
(§1) The β-carotene bleaching test was performed to investigate the ability of the extract to protect from lipid peroxidation. All test protocols were previously reported. Briefly, in the DPPH test, a solution of DPPH was mixed with extract at different concentrations (10-1000 μg/mL). After that, the mixture was incubated at room temperature for 30 min. The absorbance was read at 517 nm. In the ABTS test, a solution of ABTS radical cation was prepared and, after 12 h, was diluted with ethanol to reach an absorbance of 0.70 at 734 nm. The stabilized ABTS^+ solution was added to extracts at different concentrations (1-400 μg/mL), and the mixture was left to react at room temperature for 6 min. After that, the absorbance was read at 734 nm. Ascorbic acid was employed as a positive control in both the ABTS and DPPH assays. In the FRAP test, a mixture of tripyridyltriazine (TPTZ) solution, FeCl3, and acetate buffer was added to the sample at a concentration of 2.5 mg/mL. After 30 min of incubation at room temperature, the absorbance was measured at 595 nm. Butylated hydroxytoluene (BHT) was used as a positive control. The protection from lipid peroxidation was studied by using the β-carotene bleaching test. […] The mixture was left to react for 30 and 60 min at 45 °C, and the absorbance was read at 470 nm. Propyl gallate was used as a positive control.

A short description of assay [2]: DPPH radical scavenging test. The settings on record: 30 min, room temperature. As for the experimental part: as §1
Assay [3] in a line: ABTS radical scavenging test. The note with it: 6 min, room temperature. As to the method:
as §1

A short description of assay [4]: Ferric Reducing Ability Power (FRAP) test. The settings on record: at 2.5 mg/mL. As to the method:
as §1

For `CCCOC(=O)c1cc(O)c(O)c(O)c1` [Propyl gallate, propyl gallate], the figures for the “β-Carotene Bleaching Test IC50” value in assay [1] (30 min) and in assay [1] (60 min) were 1.04 ± 0.04 µg/mL and 0.09 ± 0.00 µg/mL, respectively. Consider `O=C1O[C@H]([C@@H](O)CO)C(O)=C1O` [Ascorbic acid, ascorbic acid], for which the “DPPH Test IC50” value in assay [2] was 5.0 ± 0.8 µg/mL. Further, in assay [3], the “ABTS Test IC50” value is 1.7 ± 0.06 µg/mL. As for `Cc1cc(C(C)(C)C)c(O)c(C(C)(C)C)c1` [BHT, butylated hydroxytoluene], the “FRAP Test” value in assay [4] is 63.27 ± 4.35 μM Fe(II)/g.
